In ChEMBL document CHEMBL4190178 (Medchemcomm, 2016):
The source made the active and inactive calls. The calls are words filed in the database; no cut-off is given here.

Assays:
LNCaP [1] = experiment: Cytotoxicity against human LNCAP cells assessed as reduction in cell viability after 24 hrs by MTT assay; format: functional, cell-based
[2] = target: T1, Androgen receptor (Homo sapiens) (UniProt P10275); experiment: Antagonist activity at androgen receptor in human LNCAP cells assessed as decrease in testosterone-induced PSA expression levels at 10 uM after 24 hrs by Western blot analysis; format: cell-based
T1 sequence (whole entry): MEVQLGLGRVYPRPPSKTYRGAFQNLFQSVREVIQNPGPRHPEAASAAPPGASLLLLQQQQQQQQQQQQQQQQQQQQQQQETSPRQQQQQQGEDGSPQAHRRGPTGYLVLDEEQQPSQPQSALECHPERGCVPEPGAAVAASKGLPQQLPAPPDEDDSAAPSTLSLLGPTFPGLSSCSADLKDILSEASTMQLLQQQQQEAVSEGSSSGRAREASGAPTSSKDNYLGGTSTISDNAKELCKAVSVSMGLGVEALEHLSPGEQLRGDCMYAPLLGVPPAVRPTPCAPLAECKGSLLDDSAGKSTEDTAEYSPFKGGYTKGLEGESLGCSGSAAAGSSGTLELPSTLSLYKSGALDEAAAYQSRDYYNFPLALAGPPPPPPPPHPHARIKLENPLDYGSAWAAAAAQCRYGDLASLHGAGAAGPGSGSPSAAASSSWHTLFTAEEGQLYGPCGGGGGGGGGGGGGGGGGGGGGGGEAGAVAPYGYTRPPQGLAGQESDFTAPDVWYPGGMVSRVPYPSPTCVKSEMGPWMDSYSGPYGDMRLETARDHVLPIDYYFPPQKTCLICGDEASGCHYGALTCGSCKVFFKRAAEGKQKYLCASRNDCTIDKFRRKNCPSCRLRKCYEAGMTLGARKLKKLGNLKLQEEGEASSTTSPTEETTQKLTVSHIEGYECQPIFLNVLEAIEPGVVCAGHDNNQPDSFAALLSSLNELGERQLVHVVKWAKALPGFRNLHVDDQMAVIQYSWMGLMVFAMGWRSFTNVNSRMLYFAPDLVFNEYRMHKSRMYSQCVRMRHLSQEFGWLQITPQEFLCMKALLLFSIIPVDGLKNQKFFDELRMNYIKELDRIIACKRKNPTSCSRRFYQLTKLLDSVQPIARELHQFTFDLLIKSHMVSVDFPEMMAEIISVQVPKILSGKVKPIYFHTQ

[3] = target: T1, Androgen receptor (Homo sapiens); experiment: Antagonist activity at human androgen receptor expressed in African green monkey COS7 cells at 7.5 uM after 24 hrs by ARE-dual luciferase reporter gene assay; format: cell-based
PC-3 = experiment: Antiproliferative activity against human PC3 cells assessed as decrease in cell viability after 24 hrs by MTT assay; format: functional, cell-based; details: PC-3, 24 h
DU-145 = experiment: Antiproliferative activity against human DU145 cells assessed as decrease in cell viability after 24 hrs by MTT assay; format: functional, cell-based; details: DU-145, 24 h
LNCaP [4] = experiment: Antiproliferative activity against human LNCAP cells assessed as decrease in cell viability after 24 hrs by MTT assay; format: functional, cell-based
[5] = target: T2, Alpha-1A adrenergic receptor (Homo sapiens) (UniProt P35348); experiment: Antagonist activity at human alpha1A adrenergic receptor expressed in Chem1 cells assessed as decrease in epinephrine-induced calcium mobilization by measuring relative fluorescence unit at 10 uM by fluoforte dye based fluorescence assay relative to epinephrine; format: functional, cell-based
T2 sequence (whole entry): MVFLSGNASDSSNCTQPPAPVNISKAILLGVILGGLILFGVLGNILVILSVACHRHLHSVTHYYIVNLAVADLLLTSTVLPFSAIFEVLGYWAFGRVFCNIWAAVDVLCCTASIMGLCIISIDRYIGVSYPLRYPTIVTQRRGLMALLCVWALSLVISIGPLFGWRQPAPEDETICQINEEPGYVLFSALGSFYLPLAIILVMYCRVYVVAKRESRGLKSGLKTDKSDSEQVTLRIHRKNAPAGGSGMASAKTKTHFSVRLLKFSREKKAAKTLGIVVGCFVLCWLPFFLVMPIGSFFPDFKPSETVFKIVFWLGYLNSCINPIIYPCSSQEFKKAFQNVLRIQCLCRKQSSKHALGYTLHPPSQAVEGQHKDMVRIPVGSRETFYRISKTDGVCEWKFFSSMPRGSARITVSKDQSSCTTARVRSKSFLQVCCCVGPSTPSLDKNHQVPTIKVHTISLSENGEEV

Rattus norvegicus [6] = experiment: Anti-androgenic activity in benign prostatic hyperplasia Sprague-Dawley rat model assessed as reduction in citral-induced prostate weight at 10 mg/kg, po qd co-administered with citral for 21 days starting post 8 days of citral alone treatment; format: functional; parameters: scale not given: the % may be the effect or the level left
Rattus norvegicus [7] = experiment: Toxicity in benign prostatic hyperplasia Sprague-Dawley rat model assessed as effect on seminal vesicle weight at 10 mg/kg, po qd co-administered with citral for 21 days starting post 8 days of citral alone treatment; format: organism-based; details: in vivo
Rattus norvegicus [8] = experiment: Toxicity in benign prostatic hyperplasia Sprague-Dawley rat model assessed as effect on testis weight at 10 mg/kg, po qd co-administered with citral for 21 days starting post 8 days of citral alone treatment; format: organism-based; details: in vivo
Rattus norvegicus [9] = experiment: Toxicity in benign prostatic hyperplasia Sprague-Dawley rat model assessed as effect on epididymis weight at 10 mg/kg, po qd co-administered with citral for 21 days starting post 8 days of citral alone treatment; format: organism-based; details: in vivo
Rattus norvegicus [10] = experiment: (§1) Anti-androgenic activity in citral-induced benign prostatic hyperplasia Sprague-Dawley rat model assessed as reduction in stromal component at 10 mg/kg, po qd co-administered with citral for 21 days starting post 8 days of citral alone treatment by hematoxyline and eosin staining based light microscopic analysis; format: functional, organism-based
Rattus norvegicus [11] = experiment: as §1, with “tissue differentiation into stroma” for “stromal component”; format: functional, organism-based
Rattus norvegicus [12] = experiment: as §1, with “tissue differentiation into acinar compartments” for “stromal component”; format: functional, organism-based
[13] = Cmax in Sprague-Dawley rat serum at 10 mg/kg, po administered as single dose by LC-MS/MS analysis; format: ADME, organism-based; parameters: dose 10 mg/kg, route oral
[14] = Tmax in Sprague-Dawley rat serum at 10 mg/kg, po administered as single dose by LC-MS/MS analysis; format: ADME, organism-based
[15] = AUClast in Sprague-Dawley rat serum at 10 mg/kg, po administered as single dose by LC-MS/MS analysis; format: ADME, organism-based; parameters: dose 10 mg/kg, route oral, time 0 - last
[16] = Apparent clearance in Sprague-Dawley rat serum at 10 mg/kg, po administered as single dose by LC-MS/MS analysis; format: ADME, organism-based
[17] = Apparent volume of distribution in Sprague-Dawley rat serum at 10 mg/kg, po administered as single dose by LC-MS/MS analysis; format: ADME, organism-based
[18] = Cmax in Sprague-Dawley rat prostate at 10 mg/kg, po administered as single dose by LC-MS/MS analysis; format: ADME, organism-based, Prostate gland; parameters: dose 10 mg/kg, route oral
[19] = Tmax in Sprague-Dawley rat prostate at 10 mg/kg, po administered as single dose by LC-MS/MS analysis; format: ADME, organism-based, Prostate gland
[20] = AUClast in Sprague-Dawley rat prostate at 10 mg/kg, po administered as single dose by LC-MS/MS analysis; format: ADME, organism-based, Prostate gland; details: in vivo
[21] = Apparent clearance in Sprague-Dawley rat prostate at 10 mg/kg, po administered as single dose by LC-MS/MS analysis; format: ADME, organism-based, Prostate gland; details: in vivo
[22] = Ratio of AUClast in Sprague-Dawley rat prostate to serum at 10 mg/kg, po administered as single dose by LC-MS/MS analysis; format: ADME, organism-based; details: read-out: Ratio AUC
[23] = Apparent volume of distribution in Sprague-Dawley rat prostate at 10 mg/kg, po administered as single dose by LC-MS/MS analysis; format: ADME, organism-based, Prostate gland; details: in vivo
[24] = Cmax in Sprague-Dawley rat hypothalamus at 10 mg/kg, po administered as single dose by LC-MS/MS analysis; format: ADME, organism-based; parameters: dose 10 mg/kg, route oral
[25] = Tmax in Sprague-Dawley rat hypothalamus at 10 mg/kg, po administered as single dose by LC-MS/MS analysis; format: ADME, organism-based
[26] = AUClast in Sprague-Dawley rat hypothalamus at 10 mg/kg, po administered as single dose by LC-MS/MS analysis; format: ADME, organism-based; details: in vivo
[27] = Ratio of AUClast in Sprague-Dawley rat hypothalamus to serum at 10 mg/kg, po administered as single dose by LC-MS/MS analysis; format: ADME, organism-based; details: read-out: Ratio AUC
[28] = Apparent clearance in Sprague-Dawley rat hypothalamus at 10 mg/kg, po administered as single dose by LC-MS/MS analysis; format: ADME, organism-based; details: in vivo
[29] = Apparent volume of distribution in Sprague-Dawley rat hypothalamus at 10 mg/kg, po administered as single dose by LC-MS/MS analysis; format: ADME, organism-based; details: in vivo

`O=C(CN1CCN(c2ccccn2)CC1)N1CCN(c2ncccn2)CC1` gave an EC50 (LNCaP [1]) of 50 µM.
In the case of `COc1ccccc1N1CCN(C(=O)CN2CCN(c3ccccn3)CC2)CC1`, the EC50 (LNCaP [1]) is reported as 45.9 µM.
Work on `O=C(CN1CCN(c2ccccn2)CC1)N1CCN(c2ccc([N+](=O)[O-])cc2)CC1` yielded an EC50 (LNCaP [1]) of 55.2 µM.
Molecule `COc1ccccc1N1CCN(C(=O)CN2CCN(c3ccc([N+](=O)[O-])cc3)CC2)CC1` has an EC50 (LNCaP [1]) of 63.1 µM.
With `O=C(N1CCN(c2ccc([N+](=O)[O-])cc2)CC1)N1CCN(c2ccc(C(F)(F)F)cc2[N+](=O)[O-])CC1` the EC50 (LNCaP [1]) was over 80 µM.
Work on `O=C(CCl)N1CCN(c2ncccn2)CC1` yielded an EC50 (LNCaP [1]) of 71.3 µM.
With `O=C(CN1CCN(c2ccc([N+](=O)[O-])cc2)CC1)N1CCN(c2ccc([N+](=O)[O-])cc2)CC1` the EC50 (LNCaP [1]) was 11.2 µM, the Activity [2] was “Active” and the Activity [3] was “Active”. For the same molecule, the EC50 (PC-3) was over 80 µM, the EC50 (DU-145) was over 80 µM and the EC50 (LNCaP [4]) was 11.2 µM. For the same molecule, the fold change (FC) [5] was 1.6, the Activity (Rattus norvegicus [6]) was 46.2% and the Activity (Rattus norvegicus [7]) was “Non-Toxic”. The Activity (Rattus norvegicus [8]) was “Non-Toxic”, the Activity (Rattus norvegicus [9]) was “Non-Toxic” and the Activity (Rattus norvegicus [10]) was “Active”. The Activity (Rattus norvegicus [11]) was “Active”, the Activity (Rattus norvegicus [12]) was “Active” and the Cmax [13] was 1100 ng/mL. For the same molecule, the Tmax [14] was 10 h, the AUC(0-t) [15] was 24100 ng·h/mL and the CL/F [16] was 6.67 mL/min/kg. It also gave a Vd/F [17] of 4.2 L/kg, a Cmax [18] of 2400 ng/g and a Tmax [19] of 10 h. The AUClast [20] was 37.3 µg·h/g, the CL/F [21] was 268.2 g/h/kg and the Kp [22] was 1.5. For the same molecule, the Vd/F [23] was 2311.9 g/kg, the Cmax [24] was 1200 ng/g and the Tmax [25] was 10 h. The AUClast [26] was 26.1 µg·h/g, the Kp [27] was 1.1 and the CL/F [28] was 383.2 g/h/kg. The Vd/F [29] was 3313.7 g/kg.
With `O=C(CN1CCN(c2ccc([N+](=O)[O-])cc2)CC1)N1CCN(c2ncccn2)CC1` the EC50 (LNCaP [1]) was 67.9 µM.
With `O=C(N1CCN(c2ccccn2)CC1)N1CCN(c2ccc([N+](=O)[O-])cc2C(F)(F)F)CC1` the EC50 (LNCaP [1]) was over 80 µM.
With `O=C(CCl)N1CCN(c2ccc([N+](=O)[O-])cc2)CC1` the EC50 (LNCaP [1]) was 9.8 µM, the Activity [2] was “Active” and the Activity [3] was “Active”. It also gave an EC50 (PC-3) of 65 µM, an EC50 (DU-145) of over 70.6 µM and an EC50 (LNCaP [4]) of 9.8 µM. For the same molecule, the fold change (FC) [5] was 1.6, the Activity (Rattus norvegicus [6]) was 31.6 - 32% and the Activity (Rattus norvegicus [7]) was “Non-Toxic”. For the same molecule, the Activity (Rattus norvegicus [8]) was “Non-Toxic”, the Activity (Rattus norvegicus [9]) was “Non-Toxic” and the Activity (Rattus norvegicus [10]) was “Active”. The Activity (Rattus norvegicus [11]) was “Active” and the Activity (Rattus norvegicus [12]) was “Active”.
Work on `O=C(CN1CCN(c2ncccn2)CC1)N1CCN(c2ccc([N+](=O)[O-])cc2)CC1` yielded an EC50 (LNCaP [1]) of 51.7 µM.
For `COc1ccccc1N1CCN(C(=O)CN2CCN(c3ncccn3)CC2)CC1`, the EC50 (LNCaP [1]) was 48.2 µM.
With `COc1ccccc1N1CCN(C(=O)CCl)CC1` the EC50 (LNCaP [1]) was 7.6 µM, the Activity [2] was “Active” and the EC50 (PC-3) was over 80 µM. The EC50 (DU-145) was over 80 µM, the EC50 (LNCaP [4]) was 7.6 µM and the fold change (FC) [5] was 1.6.
For `CC(C)C(=O)Nc1ccc([N+](=O)[O-])c(C(F)(F)F)c1` [FLUTAMIDE], the EC50 (LNCaP [1]) was 7 µM, the Activity (Rattus norvegicus [6]) was 51.8% and the Activity (Rattus norvegicus [7]) was “Non-Toxic”. For the same molecule, the Activity (Rattus norvegicus [8]) was “Non-Toxic”, the Activity (Rattus norvegicus [9]) was “Non-Toxic” and the Activity (Rattus norvegicus [10]) was “Active”. For the same molecule, the Activity (Rattus norvegicus [11]) was “Active” and the Activity (Rattus norvegicus [12]) was “Active”.
